In US6610315B2, “Topical application of stable hydroalcoholic compositions for maintaining or improving skin conditions, and delivering fragrance to skin” (3M Innovative Properties Company, priority 1995, dated 2003):

Experiments:
[1] = system: S. Aureus ATCC 14154 (lab strain 502); experiment: Minimum Inhibitory Concentration (MIC); assay type: cell-based
Method: (§1) An overnight culture of E. coli ATCC8739 (lab strain 223) and/or S. Aureus ATCC 14154 (lab strain 502) grown on trypticase soy agar plates was resuspended in Mueller-Hinton Broth to a cell density of 0.6-1.2×10^6 colony forming units per milliliter. Chlorhexidine samples were prepared by adjusting CHG to 512 μg/ml in Mueller-Hinton Broth and serially diluting in two-fold steps in Mueller-Hinton Broth. The CHG-containing Mueller-Hinton Broth was placed in 96-well sterile microliter plates and each well was inoculated with the bacteria. The plates were then incubated for 24-48 hrs at 37° C. Bacterial growth was determined visually by comparing the plates.

[2] = system: E. coli ATCC8739 (lab strain 223); experiment: Minimum Inhibitory Concentration (MIC); assay type: cell-based
Method: as §1

[3] = Example 9, lowest concentration of CHG giving complete kill, 24-48 hrs at 37° C.
[4] = Example 24, CHG at 0.5% by weight where present

S aureus 502 MIC [1, 4]: 4 µg/mL
E. coli 223 MIC [2, 4]: 4 µg/mL
Compound: N=C(NCCCCCCNC(=N)NC(=N)Nc1ccc(Cl)cc1)NC(=N)Nc1ccc(Cl)cc1.O=C(O)[C@H](O)[C@@H](O)[C@H](O)[C@H](O)CO.O=C(O)[C@H](O)[C@@H](O)[C@H](O)[C@H](O)CO [0.5% CHG std., chlorhexidine gluconate]
MIC (μg/ml) S. aureus [1, 3]: 4 µg/mL
MIC (μg/ml) E. coli [2, 3]: 4 µg/mL
